Reference: the NIST ThermoML archive (doi:10.1016/j.jct.2018.12.023)
Numbers after ± are expanded uncertainties.

Settings: Liquid, Ebulliometric method (Recirculating still)

With `CCC(=O)O` [propanoic acid] the “vapor or sublimation pressure” value (414.32 K) was 101.3 ± 1.6 kPa.
With `CCI` [iodoethane] the “vapor or sublimation pressure” value (345.5 K) was 101.3 ± 1.6 kPa.
In the case of `CCOC(=O)CC` [ethyl propanoate], the “vapor or sublimation pressure” value (372.25 K) is reported as 101.3 ± 1.6 kPa.
For `CCO` [ethanol], the “vapor or sublimation pressure” value (351.45 K) was 101.3 ± 1.6 kPa.
